Test results published in patent US10139420B2, “Methods for treating vaso-occlusive crisis using non-modified annexin V” (ISNERM (Institut National de la Sante et de la Recherche …, priority 2011, dated 2018).

What was measured:
[1] = tested on: Mesenteric arteries; assay: Microvascular dilation of perfused mesenteric resistance arteries (pressure myograph); set-up: species or system mouse
Protocol: Mesenteric arteries were removed from terminally anesthetized mice and placed them in ice-cold physiological salt solution (PSS). 4-6 arterial segments from each mouse were used. A segment of mesenteric artery was cannulated and mounted in a video-monitored perfusion system as described (21). Arterial segments were bathed in a 5 ml organ bath containing a PSS maintained at pH 7.4, with pO2 and pCO2 of 160 mm Hg and 37 mm Hg, respectively. Arterial diameter was continuously recorded by video (Living System Instrumentation Inc., Burlington, Vt.). Pressure and flow rates could be changed independently. Diameter changes were measured in each segment when the intraluminal pressure was set at 75 mm Hg in order to measure dilation. Artery viability was tested with potassium-rich solution ([…]; PSS). The endothelium was considered functional when 80% relaxation was obtained with 10^−6 acetylcholine (ACH), after phenylephrine (PE)-induced preconstriction (50% of maximal contraction with KCl 80 mM). A cumulative concentration-response curve to ACH (10^−7-10^−4 M) was constructed after preconstriction. Sodium nitroprusside (SNP, 100 μM) was tested after the ACH curve. Intraluminal flow was then increased to 21 μl/minute and MP were injected in the vessel. A new cumulative concentration-response curve to ACH after was constructed after new PE-induced preconstriction. […]

[2] = tested on: SCD patients; details: long term treatment; cited from earlier work
[3] = tested on: SAD transgenic mice; assay: Vaso-occlusive crises in mice: renal artery blood flow velocity by Echo-Doppler, cardiac output, renal histology; format: in vivo, mouse; details: for reduction in the mean blood flow velocity of the right renal arteries: TSP1 1 mg/kg intravenous
Protocol: We characterized the induction of VOC in SAD transgenic mice (18, 19) according to our previously published method, in response to the intravenous administration of TSP1 (1 mg/kg), TSP1-derived peptides 4N1-1 or 4N1-2, or purified erythrocyte MP. Briefly, mice were anesthetized with isoflurane and monitored to prevent any cardiorespiratory depression. Mice were shaved and placed in the decubitus position on a heating blanket (38° C.). We used a Vivid 7 echograph (GE Medical Systems®, Horten, Norway) equipped with a 12-MHz linear transducer (12 L). The ultrasound probe was placed on the left side of the abdomen for examination of renal arteries, or in left lateral decubitus for cardiac output acquisition with transducer on the chest. Data were transferred on-line to an EchoPAC ultrasound image analysis workstation (GE Medical Systems®). Two-Dimensional ultrasound imaging of the abdomen in left-sided longitudinal B-mode allowed kidney width and height measurements. Color-coded blood flow detection by Doppler enabled renal arteries to be localized. A pulsed Doppler spectrum was recorded and peak systolic, end-diastolic and time-average mean BFV were measured in the renal artery, with Doppler beam angle correction. To calculate cardiac output, spatial flow profiles were analyzed in parasternal long-axis B-mode images of the pulmonary artery and BFV were measured as above. The following formula was applied: CO=[(V^mean·60)·(π·(Dpa/2^2)], where CO is the cardiac output in ml/minute, V^mean is the mean time-averaged BFV in cm/s and Dpa is the pulmonary artery diameter in cm. Kidney sizes and BFV were determined by the same investigator, as means of 5 to 8 measurements. Repeatability for cardiac output measurements was verified. We controlled and confirmed that kidney size was similar between SAD and wild type mice. After sacrifice, kidneys were dissected, dehydrated, mounted in paraffin, sectioned and stained by Masson trichrome. Vascular congestion was observed by phase-contrast microscopy, as large erythrocyte aggregates occluding kidney capillaries and larger vessels. In some experiments, TSP1 (1 mg/kg) or control BSA (1 mg/kg) were injected. After 5 minutes, mice were terminally anesthetized by pentobarbital overdose. Whole blood was collected through cardiac puncture, centrifuged (400 g, 15 minutes) to eliminate erythrocytes and leukocytes, and double centrifuged (12500 g, 5 minutes) to eliminate platelets with minimal activation. Supernatants were considered platelet-free plasma (PFP). Circulating MP were quantified by FACS.
We evaluated the concept that TSP1 influences VOC during SCD in vivo. We used SAD transgenic mice that express a mutated human hemoglobin β-chain known to cause sickle cell formation and sensitivity to VOC (18, 19).

[4] = tested on: SAD mouse erythrocytes; assay: Echinocyte conversion and MP shedding by isolated erythrocytes (LORCA ektacytometer, microscopy, FACS), SAD; format: cell-based
Protocol: (§1) Mouse blood was obtained through retro-orbital sinus puncture, mixed with anti-coagulant heparin buffer (5 UI/ml), and collected on citrated tubes. Blood diluted 1:1 with PBS (Gibco-Life Sciences) was placed onto histopaque-1083 (Sigma) density gradients for centrifugation (600 g, 25 minutes). Erythrocyte pellets were resuspended, washed in DMEM and stored for up to 4 hours at room temperature. Erythrocyte surface CD47 expression was assessed by FACS. Fresh RBC were washed and blocked with PBS-BSA 5% for 30 min and immunoreacted with mouse-specific fluoroisothiocyanate (FITC)-coupled anti-CD47 monoclonal antibody (clone mIAP301; BD Biosciences, Le Pont de Claix, France), or matched irrelevant IgG2aκ isotype for 45 min in 2% PBS-BSA. Erythrocytes were washed in PBS-BSA 2% prior to FACS analysis. Erythrocyte phenotypes were analyzed by […] electronic microscopy. Briefly, mouse erythrocytes were fixed with glutaraldehyde 1% and paraformaldehyde 4%, dehydrated and embedded in Epon™ epoxy resin. Sections contrasted with uranyl acetate and lead citrate were examined with a JEOL JEM 1010 microscope. Average apparent spicule number was determined by direct counting in 80 to 120 cells per condition.
(§2) To trigger MP shedding, erythrocyte were suspended in polyvinylpyrrolidone (31 mPa.s) and placed in a rotating type LORCA ektacytometer (R&R Mechatronics, Hoorn, The
(§3) Netherlands) in the absence or presence of TSP1 (25 μg/ml), or TSP1-derived peptides 4N1-1 or 4N1-2 (25 μM). Shear rate was applied according to the builder's program (1500 s^−1; 2.5 minutes). Erythrocytes were immediately separated and supernatant PS^+ MP quantified by FACS. Concentrated MP stocks were generated from 10 to 20 ml of supernatant from erythrocytes suspended in RPMI-1640 (4.10^6/ml) and treated with 4N1-1. Suspensions were centrifuged at 400 g for 15 min to discard cells, and ultracentrifuged at 20500 g for 45 min to pellet MP, which were resuspended in filtered (0.2 μm) DMEM and stored at −80° C. MP concentrations were determined as previously described (20). Briefly, MP were labeled with 2 μl FITC-conjugated annexin-V (Roche Diagnostics, France) diluted in 100 μl reaction buffer with 5 mM CaCl2. CaCl2 was omitted in negative controls. MP were analyzed on a Coulter EPICS XL flow cytometer (Beckman Coulter). MP were identified in forward light scatter (FSc) and side-angle light scatter (SSc) intensity dot plots set at logarithmic gain, as events of 0.1-1 μm in diameter. MP-size events were analyzed in FL/FSC fluorescence dot plots to determine annexin-V labeling. MP concentration was determined with respect to calibrated fluorescent microbeads (Flowcount). To determine erythrocyte origin, MP were double labeled with rat PE-Cy7-coupled mouse-specific anti-Ter119 antibody (Biolegend via Ozyme, France), or matched irrelevant IgG2bκ isotype.

[5] = tested on: wild type mice; assay: Vaso-occlusive crises in mice: renal artery blood flow velocity by Echo-Doppler (wild type); format: in vivo, mouse
Protocol: (§4) We characterized the induction of VOC in SAD transgenic mice (18, 19) according to our previously published method, in response to the intravenous administration of TSP1 (1 mg/kg), TSP1-derived peptides 4N1-1 or 4N1-2, or purified erythrocyte MP. Briefly, mice were anesthetized with isoflurane and monitored to prevent any cardiorespiratory depression. Mice were shaved and placed in the decubitus position on a heating blanket (38° C.). We used a Vivid 7 echograph (GE Medical Systems®, Horten, Norway) equipped with a 12-MHz linear transducer (12 L). The ultrasound probe was placed on the left side of the abdomen for examination of renal arteries, or in left lateral decubitus for cardiac output acquisition with transducer on the chest. Data were transferred on-line to an EchoPAC ultrasound image analysis workstation (GE Medical Systems®). Two-Dimensional ultrasound imaging of the abdomen in left-sided longitudinal B-mode allowed kidney width and height measurements. […] A pulsed Doppler spectrum was recorded and peak systolic, end-diastolic and time-average mean BFV were measured in the renal artery, with Doppler beam angle correction. To calculate cardiac output, spatial flow profiles were analyzed in parasternal long-axis B-mode images of the pulmonary artery and BFV were measured as above. […] Circulating MP were quantified by FACS.

[6] = tested on: SAD mice; assay: Circulating PS+ MP in platelet-free plasma by FACS (annexin-V labeling), SAD mice; format: in vivo, mouse; details: SAD mice, TSP1 injection (1 mg/kg), within 5 minutes, vs control SAD
Protocol: as §4, with “L).” for “L). The ultrasound probe was placed on the left side of the abdomen for examination of renal arteries, or in left lateral decubitus for cardiac output acquisition with transducer on the chest. Data were transferred on-line to an EchoPAC ultrasound image analysis workstation (GE Medical Systems®). Two-Dimensional ultrasound imaging of the abdomen in left-sided longitudinal B-mode allowed kidney width and height measurements.”
(§5) Netherlands) in the absence or presence of TSP1 (25 μg/ml), or TSP1-derived peptides 4N1-1 or 4N1-2 (25 μM). […] Erythrocytes were immediately separated and supernatant PS^+ MP quantified by FACS. […] MP concentrations were determined as previously described (20). […] MP were analyzed on a Coulter EPICS XL flow cytometer (Beckman Coulter). […] MP-size events were analyzed in FL/FSC fluorescence dot plots to determine annexin-V labeling. […]

[7] = tested on: wild type mouse erythrocytes; assay: Echinocyte conversion and MP shedding by isolated erythrocytes (LORCA ektacytometer, microscopy, FACS), wild type; format: cell-based; details: under shear, TSP1 (25 μg/ml), within minutes
Protocol: as §1, §2, §3

[8] = tested on: wild type mice; assay: Circulating PS+ MP in platelet-free plasma by FACS (annexin-V labeling), wild type mice; format: in vivo, mouse; details: TSP1 injection (1 mg/kg), within 5 minutes, vs control
Protocol: as §4, with “L).” for “L). The ultrasound probe was placed on the left side of the abdomen for examination of renal arteries, or in left lateral decubitus for cardiac output acquisition with transducer on the chest. Data were transferred on-line to an EchoPAC ultrasound image analysis workstation (GE Medical Systems®). Two-Dimensional ultrasound imaging of the abdomen in left-sided longitudinal B-mode allowed kidney width and height measurements.”
as §5

[9] = after intravenous injection (TSP1 1 mg/kg; MP 300.10^3 MP/mouse)
[10] = TSP1 and shear stress, vs control (discussion)

Molecule: CC1(C)CC(O)CC(C)(C)N1[O] [Tempol]
- effect alone on vessel diameter ([1]; Tempol alone, vs control): −5 % vessel diameter
- reduction of the deleterious effects of SAD RBC MP on vasodilation ([1]; vessel treated 10 μM, 30 minutes, vs MP alone): −50%

Molecule: NC(=O)NO [hydroxy-urea]
- long term safety [2]: presumptions of carcinogenesis in the long term
- proportion of SCD patients in whom treatment is effective [2]: about 40%

Molecule: TSP1: Human recombinant TSP1 produced by EMP-Genetech (Germany)
- reduction in the mean blood flow velocity of the right renal arteries ([3]; after 5 minutes): 35%
- reduction in the mean blood flow velocity of the right renal arteries ([3]; rapid): 20%
- drop in renal perfusion ([3]; TSP1 injection, within minutes): 30%
- diastolic and mean blood flow velocities [3, 9]: dramatically decreased
- renal histology after Masson trichrome stain [3, 9]: red blood cells aggregates and vascular congestion
- systolic blood flow velocity [3, 9]: unchanged
- effect on sickle cells ([4]; SAD erythrocytes, TSP1 or peptide): did not affect sickle cells
- MP shedding by SAD erythrocytes [4, 10]: doubled
- proportion of SAD echinocytes [4, 10]: doubled
- increase in SAD echinocytes ([4]; under shear, TSP1 (25 μg/ml) or peptide (25 μM), vs control): 50%
- systolic, diastolic and mean blood flow velocities ([5]; TSP1 1 mg/kg intravenous): remained unchanged
- renal perfusion ([5]; TSP1 injection): did not modify renal perfusion
- increase in circulating PS+ MP [6]: 3 fold
- proportion of wild type echinocytes reached [7]: 30%
- raise in the proportion of wild type echinocytes [7]: over 10 fold
- raise in plasma PS+ MP [8]: 3 fold
